From ChEMBL document CHEMBL1201862, “PubChem BioAssay data set” (2004)
Counter-ions that a name gives are not always drawn. Active and inactive are the calls of the source.

Columns and labels:
Estrogen receptor = target: T1, Estrogen receptor (Homo sapiens, UniProt P03372);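 further: potency for inhibiting coactivator peptide recruitment to the receptor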
T1 sequence (P03372 whole entry): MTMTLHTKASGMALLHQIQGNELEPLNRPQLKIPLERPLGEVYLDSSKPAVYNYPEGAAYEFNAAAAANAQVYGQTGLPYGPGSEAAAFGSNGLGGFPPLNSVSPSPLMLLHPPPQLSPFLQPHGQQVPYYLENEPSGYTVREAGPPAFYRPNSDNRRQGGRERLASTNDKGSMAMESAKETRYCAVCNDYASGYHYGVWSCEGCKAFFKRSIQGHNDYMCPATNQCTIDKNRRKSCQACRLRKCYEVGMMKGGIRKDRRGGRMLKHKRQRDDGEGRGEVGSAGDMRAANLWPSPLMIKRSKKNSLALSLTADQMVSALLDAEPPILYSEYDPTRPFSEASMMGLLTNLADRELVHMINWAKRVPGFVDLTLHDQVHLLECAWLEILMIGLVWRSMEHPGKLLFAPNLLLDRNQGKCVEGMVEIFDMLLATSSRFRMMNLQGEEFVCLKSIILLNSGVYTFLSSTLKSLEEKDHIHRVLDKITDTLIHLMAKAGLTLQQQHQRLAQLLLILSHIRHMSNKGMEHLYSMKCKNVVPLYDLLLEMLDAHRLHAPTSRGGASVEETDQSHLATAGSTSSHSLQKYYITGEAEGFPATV

Vero [1] = assay: viability of Vero cells under compound – cytotoxicity control for flavivirus capping enzyme inhibitors (AID 588742); format: functional; conditions: Chlorocebus sabaeus
Genome polyprotein = Genome polyprotein (dengue virus type 2, UniProt P29990); assay: flavivirus cap methylation enzyme inhibition – biochemical, confirmation dose response, primary screen (AID 588689); format: functional
Sequence of Genome polyprotein (P29990 2492-3391 limits assumed): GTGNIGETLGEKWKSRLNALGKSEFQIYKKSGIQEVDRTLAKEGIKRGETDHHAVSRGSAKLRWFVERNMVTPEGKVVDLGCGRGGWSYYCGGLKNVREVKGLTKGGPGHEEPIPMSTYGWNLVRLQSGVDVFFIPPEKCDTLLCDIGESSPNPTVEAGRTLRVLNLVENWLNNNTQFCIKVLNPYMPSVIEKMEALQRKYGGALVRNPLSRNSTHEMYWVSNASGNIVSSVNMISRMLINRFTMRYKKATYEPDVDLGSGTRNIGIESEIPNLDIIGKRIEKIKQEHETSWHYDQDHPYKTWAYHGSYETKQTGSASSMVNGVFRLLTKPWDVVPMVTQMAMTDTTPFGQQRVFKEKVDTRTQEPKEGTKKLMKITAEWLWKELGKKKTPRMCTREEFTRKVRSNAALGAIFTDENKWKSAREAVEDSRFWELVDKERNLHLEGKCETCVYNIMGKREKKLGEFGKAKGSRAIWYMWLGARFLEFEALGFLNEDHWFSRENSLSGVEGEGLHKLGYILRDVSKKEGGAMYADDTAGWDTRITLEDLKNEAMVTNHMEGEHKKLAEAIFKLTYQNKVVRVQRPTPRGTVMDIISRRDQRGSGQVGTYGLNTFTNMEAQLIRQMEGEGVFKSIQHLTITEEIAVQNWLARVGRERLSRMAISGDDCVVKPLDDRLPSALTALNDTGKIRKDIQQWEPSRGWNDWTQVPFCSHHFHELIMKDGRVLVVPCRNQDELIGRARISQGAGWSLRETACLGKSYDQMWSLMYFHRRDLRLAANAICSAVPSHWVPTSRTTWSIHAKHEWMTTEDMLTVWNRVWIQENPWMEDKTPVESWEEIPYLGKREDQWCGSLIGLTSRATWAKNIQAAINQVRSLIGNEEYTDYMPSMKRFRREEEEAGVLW

[2] = target: Ras and Rab interactor 1/Tyrosine-protein kinase ABL1 (Homo sapiens, UniProt P00519+Q13671); format: functional;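 further: biochemical TR-FRET dose-response test measuring inhibition of binding between Rin1 and Abl proteins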
Sequence of Ras and Rab interactor 1/Tyrosine-protein kinase ABL1 (P00519 whole entry): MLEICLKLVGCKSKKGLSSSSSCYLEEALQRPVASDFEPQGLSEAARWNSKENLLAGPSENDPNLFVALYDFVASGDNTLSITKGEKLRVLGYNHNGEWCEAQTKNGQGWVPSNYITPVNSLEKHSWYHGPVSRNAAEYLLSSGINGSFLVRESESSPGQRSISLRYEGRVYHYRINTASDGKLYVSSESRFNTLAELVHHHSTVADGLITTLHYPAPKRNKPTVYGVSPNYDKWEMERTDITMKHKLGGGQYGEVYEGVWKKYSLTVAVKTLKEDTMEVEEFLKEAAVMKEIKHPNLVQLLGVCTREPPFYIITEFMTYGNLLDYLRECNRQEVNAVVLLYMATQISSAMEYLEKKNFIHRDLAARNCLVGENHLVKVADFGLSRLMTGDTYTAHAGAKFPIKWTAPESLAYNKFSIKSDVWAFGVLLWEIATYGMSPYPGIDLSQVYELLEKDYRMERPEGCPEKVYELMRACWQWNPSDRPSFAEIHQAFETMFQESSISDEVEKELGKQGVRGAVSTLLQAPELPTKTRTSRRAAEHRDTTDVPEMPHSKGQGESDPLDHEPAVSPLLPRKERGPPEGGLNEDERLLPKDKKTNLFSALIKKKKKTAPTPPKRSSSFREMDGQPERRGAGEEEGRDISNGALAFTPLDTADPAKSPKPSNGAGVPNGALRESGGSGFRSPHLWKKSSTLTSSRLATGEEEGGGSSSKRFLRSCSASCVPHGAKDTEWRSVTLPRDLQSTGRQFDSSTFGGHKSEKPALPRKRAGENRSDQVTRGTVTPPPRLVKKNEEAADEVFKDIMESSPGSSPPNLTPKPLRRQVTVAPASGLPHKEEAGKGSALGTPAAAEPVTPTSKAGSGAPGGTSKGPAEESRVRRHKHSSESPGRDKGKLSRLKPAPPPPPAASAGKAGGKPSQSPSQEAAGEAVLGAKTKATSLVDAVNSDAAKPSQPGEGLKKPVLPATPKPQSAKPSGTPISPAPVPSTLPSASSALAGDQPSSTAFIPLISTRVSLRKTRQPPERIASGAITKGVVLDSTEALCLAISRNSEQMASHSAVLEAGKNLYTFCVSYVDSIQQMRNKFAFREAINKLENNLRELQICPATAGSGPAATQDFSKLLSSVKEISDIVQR
Sequence of Ras and Rab interactor 1/Tyrosine-protein kinase ABL1 (Q13671 whole entry): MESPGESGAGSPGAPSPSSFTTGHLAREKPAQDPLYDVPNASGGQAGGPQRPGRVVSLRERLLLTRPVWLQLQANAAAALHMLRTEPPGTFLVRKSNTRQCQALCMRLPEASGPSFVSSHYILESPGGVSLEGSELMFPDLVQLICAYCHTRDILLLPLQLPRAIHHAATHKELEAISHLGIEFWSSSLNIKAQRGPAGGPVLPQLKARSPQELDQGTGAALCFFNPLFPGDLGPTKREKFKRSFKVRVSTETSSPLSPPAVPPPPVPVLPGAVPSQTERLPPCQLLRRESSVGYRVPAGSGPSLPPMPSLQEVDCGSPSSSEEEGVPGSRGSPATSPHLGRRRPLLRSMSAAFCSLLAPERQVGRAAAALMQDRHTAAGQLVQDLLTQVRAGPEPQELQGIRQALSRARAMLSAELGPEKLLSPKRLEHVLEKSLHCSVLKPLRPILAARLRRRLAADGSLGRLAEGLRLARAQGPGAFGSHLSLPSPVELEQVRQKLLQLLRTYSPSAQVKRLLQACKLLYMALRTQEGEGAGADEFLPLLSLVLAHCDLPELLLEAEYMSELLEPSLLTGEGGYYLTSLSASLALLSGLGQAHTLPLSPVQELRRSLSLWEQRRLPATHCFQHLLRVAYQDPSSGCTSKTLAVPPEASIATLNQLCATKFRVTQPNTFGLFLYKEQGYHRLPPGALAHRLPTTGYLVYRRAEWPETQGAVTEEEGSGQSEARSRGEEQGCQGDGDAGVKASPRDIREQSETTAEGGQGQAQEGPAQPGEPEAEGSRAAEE

Mu-type opioid receptor = Mu-type opioid receptor (Homo sapiens, UniProt P35372); format: functional, cell-based;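 further: U2OS cells with beta-arrestin recruitment to OPRM1 by beta-gal complementation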
Sequence of Mu-type opioid receptor (P35372 whole entry): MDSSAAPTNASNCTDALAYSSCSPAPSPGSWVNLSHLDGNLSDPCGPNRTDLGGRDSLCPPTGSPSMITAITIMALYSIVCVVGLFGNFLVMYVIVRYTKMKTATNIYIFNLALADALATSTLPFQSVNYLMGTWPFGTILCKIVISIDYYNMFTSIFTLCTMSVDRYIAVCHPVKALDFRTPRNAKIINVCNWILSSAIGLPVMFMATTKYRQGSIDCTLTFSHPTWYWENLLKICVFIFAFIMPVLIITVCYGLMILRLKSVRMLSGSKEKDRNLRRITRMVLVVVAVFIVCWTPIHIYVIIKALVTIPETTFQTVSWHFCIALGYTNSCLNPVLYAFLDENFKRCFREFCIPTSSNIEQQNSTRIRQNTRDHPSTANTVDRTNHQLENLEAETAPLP

[3] = target: 5-hydroxytryptamine receptor 2A (Mus musculus, UniProt P35363); format: functional, cell-based;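 further: CHO-K1 cells with tagged receptor and beta-arrestin; agonist potency measured as compound-induced activation of the receptor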
Sequence of 5-hydroxytryptamine receptor 2A (P35363 whole entry): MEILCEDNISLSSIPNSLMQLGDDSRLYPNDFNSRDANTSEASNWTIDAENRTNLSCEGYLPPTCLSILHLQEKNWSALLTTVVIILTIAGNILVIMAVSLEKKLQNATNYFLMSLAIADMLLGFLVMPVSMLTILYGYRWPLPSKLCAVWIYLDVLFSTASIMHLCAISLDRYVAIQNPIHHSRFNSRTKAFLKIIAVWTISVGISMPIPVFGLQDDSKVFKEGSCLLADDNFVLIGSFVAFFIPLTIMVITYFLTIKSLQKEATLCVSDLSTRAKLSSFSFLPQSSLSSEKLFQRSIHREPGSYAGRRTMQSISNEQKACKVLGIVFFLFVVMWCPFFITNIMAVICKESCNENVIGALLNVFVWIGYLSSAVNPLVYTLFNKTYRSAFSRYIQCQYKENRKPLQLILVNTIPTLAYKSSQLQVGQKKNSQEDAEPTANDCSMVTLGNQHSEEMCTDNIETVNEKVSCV

[4] = THP-1 cell cytotoxicity, dose response, cytotoxicity control for non-replicating M. tuberculosis project (AID 489025); format: functional
[5] = HepG2 cell cytotoxicity, dose response, cytotoxicity control for non-replicating M. tuberculosis project (AID 489018); format: functional; conditions: Mycobacterium tuberculosis
Caspase-3 = target: T2, Caspase-3 (Homo sapiens, UniProt P42574); format: functional;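 further: Dose-response selectivity test against caspase-3 for candidate inhibitors of sentrin-specific proteases (SENPs)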
T2 sequence (P42574 whole entry): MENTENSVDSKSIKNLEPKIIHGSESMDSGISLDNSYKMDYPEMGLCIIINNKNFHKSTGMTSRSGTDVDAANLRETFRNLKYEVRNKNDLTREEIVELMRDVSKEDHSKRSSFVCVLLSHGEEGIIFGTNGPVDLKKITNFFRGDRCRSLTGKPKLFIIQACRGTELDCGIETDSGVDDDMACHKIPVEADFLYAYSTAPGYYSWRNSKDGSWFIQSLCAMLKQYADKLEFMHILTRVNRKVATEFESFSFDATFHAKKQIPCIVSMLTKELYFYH

[6] = target: T3, Sentrin-specific protease 7 (Homo sapiens, UniProt Q9BQF6); format: functional;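 further: Luminescence-based dose-response confirmation of ultra-high-throughput screening hits, measuring inhibition of SENP7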
T3 sequence (Q9BQF6 whole entry): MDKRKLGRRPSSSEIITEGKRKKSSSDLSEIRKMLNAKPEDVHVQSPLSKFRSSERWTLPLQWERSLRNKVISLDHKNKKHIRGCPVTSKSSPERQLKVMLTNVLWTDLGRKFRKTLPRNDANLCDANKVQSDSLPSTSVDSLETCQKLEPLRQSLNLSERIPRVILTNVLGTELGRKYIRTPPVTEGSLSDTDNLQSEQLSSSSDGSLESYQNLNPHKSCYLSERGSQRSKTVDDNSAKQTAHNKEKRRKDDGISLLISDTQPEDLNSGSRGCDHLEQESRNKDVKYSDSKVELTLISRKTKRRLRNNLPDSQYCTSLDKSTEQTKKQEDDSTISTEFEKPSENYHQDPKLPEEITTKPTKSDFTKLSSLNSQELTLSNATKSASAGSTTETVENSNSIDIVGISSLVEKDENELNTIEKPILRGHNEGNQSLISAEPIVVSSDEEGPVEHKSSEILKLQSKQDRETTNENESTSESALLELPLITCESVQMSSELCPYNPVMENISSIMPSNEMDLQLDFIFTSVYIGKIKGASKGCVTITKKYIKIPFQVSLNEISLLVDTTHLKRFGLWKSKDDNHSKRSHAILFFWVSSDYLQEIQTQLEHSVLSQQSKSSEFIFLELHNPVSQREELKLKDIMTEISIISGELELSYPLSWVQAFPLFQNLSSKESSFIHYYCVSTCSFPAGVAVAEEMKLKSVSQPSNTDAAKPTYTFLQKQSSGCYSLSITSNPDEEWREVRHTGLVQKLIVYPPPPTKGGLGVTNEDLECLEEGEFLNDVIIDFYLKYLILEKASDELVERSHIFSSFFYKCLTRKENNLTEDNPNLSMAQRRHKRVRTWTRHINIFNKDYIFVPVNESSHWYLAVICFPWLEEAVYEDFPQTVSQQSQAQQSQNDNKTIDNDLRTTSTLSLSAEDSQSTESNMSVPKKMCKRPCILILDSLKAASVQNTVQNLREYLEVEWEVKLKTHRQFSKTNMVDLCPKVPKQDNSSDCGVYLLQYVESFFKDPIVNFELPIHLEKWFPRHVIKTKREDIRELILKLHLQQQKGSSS

[7] = target: T4, Sentrin-specific protease 6 (Homo sapiens, UniProt Q9GZR1); format: functional;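 further: Luminescence-based dose-response confirmatory assay of SENP6 inhibition, following up an ultra-high-throughput screen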
T4 sequence (Q9GZR1 whole entry): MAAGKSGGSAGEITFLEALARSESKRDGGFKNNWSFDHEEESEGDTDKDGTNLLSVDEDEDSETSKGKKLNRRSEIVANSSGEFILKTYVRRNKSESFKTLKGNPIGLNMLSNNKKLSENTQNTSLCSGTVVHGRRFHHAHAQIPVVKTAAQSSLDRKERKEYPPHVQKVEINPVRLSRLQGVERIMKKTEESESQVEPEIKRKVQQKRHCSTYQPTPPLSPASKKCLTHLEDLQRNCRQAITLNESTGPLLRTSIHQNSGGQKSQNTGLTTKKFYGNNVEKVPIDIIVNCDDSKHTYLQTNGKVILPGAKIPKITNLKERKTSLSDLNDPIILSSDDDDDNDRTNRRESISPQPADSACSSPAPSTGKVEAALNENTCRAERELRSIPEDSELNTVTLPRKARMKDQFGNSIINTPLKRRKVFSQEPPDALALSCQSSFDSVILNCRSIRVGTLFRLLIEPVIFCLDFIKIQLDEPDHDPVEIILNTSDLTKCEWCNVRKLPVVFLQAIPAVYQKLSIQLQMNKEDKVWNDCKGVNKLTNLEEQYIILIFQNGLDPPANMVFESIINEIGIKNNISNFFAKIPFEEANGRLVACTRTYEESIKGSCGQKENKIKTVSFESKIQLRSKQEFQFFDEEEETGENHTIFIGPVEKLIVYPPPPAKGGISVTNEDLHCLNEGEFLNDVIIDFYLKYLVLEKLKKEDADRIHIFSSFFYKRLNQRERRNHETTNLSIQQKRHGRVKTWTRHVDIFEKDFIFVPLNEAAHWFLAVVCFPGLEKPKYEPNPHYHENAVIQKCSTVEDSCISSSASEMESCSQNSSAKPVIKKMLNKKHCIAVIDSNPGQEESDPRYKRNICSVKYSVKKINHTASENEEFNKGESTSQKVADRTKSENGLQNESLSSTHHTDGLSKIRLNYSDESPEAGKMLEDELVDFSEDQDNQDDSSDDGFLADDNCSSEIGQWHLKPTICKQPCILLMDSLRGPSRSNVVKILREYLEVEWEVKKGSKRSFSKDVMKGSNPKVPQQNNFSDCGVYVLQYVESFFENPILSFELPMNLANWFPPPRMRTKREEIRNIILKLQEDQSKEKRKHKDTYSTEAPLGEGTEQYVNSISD

[8] = target: T5, Sentrin-specific protease 8 (Homo sapiens, UniProt Q96LD8); format: functional
T5 sequence (Q96LD8 whole entry): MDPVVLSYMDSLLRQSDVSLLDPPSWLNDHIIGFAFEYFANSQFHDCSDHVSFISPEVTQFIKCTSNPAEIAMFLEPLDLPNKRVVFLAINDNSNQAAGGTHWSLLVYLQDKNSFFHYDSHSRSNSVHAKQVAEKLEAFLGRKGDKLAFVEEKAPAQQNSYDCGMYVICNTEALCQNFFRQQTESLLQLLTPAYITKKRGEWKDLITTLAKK

Nonstructural protein 1 = Nonstructural protein 1 (Influenza A virus, UniProt Q194T2); format: functional, Influenza A virus (A/California/07/2009(H1N1))
Sequence of Nonstructural protein 1 (Q194T2 whole entry): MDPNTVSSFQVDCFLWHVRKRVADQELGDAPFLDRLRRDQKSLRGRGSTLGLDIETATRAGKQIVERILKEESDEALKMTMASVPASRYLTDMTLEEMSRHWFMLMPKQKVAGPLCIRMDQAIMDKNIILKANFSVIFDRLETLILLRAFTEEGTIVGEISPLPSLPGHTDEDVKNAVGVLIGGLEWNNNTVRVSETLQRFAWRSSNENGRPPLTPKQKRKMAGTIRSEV

[9] = target: Heat shock protein HSP 90-alpha (Homo sapiens, UniProt P07900); format: functional, organism-based
Vero [10] = assay: cells; format: functional; conditions: Chlorocebus sabaeus
Protein Tat = target: T6, Protein Tat (Human immunodeficiency virus type 1 group M subtype B (isolate HXB2)(HIV-1), UniProt P04608); format: functional;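 further: tat binding to TAR RNA read out by fluorescence polarization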
T6 sequence (P04608 whole entry): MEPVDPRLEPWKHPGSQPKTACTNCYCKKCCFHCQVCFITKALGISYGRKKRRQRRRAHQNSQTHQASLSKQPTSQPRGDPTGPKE

[11] = viability loss in THP-1 monocytes – THP-1 cells, cytotoxicity control for Vif-APOBEC3G degradation inhibitor project, dose response (AID 1117359); format: functional; conditions: THP-1
[12] = reduction of Shn3 3'UTR-driven luciferase in osteoblasts – cell-based, Clone20 osteoblasts, firefly luciferase, cherry-picked, dose response (AID 624132); format: functional;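 further: firefly luciferase luminescence from reporter carrying the Shn3 3'UTR in osteoblasts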
[13] = loss of viability in HepG2 cells – cell-based, CellTiter-Glo, cherry-picked, cytotoxicity control for Shn3 inhibitor project, dose response (AID 624134); format: functional
[14] = non-specific 3'UTR reporter inhibition in Clone20-Shn3RL – cell-based, Renilla luciferase, cherry-picked, counter-screen for Shn3 inhibitor project, dose response (AID 624133); format: functional
Paired box protein Pax-8 = Paired box protein Pax-8 (Homo sapiens, UniProt Q06710); assay: PAX8 transcriptional activity inhibition in RMG-I – RMG-I cells, luciferase, cherry-pick, dose response (AID 687027); format: functional, cell-based;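 further: luciferase reporter driven by Pax8 target thyroperoxidase promoter measured by SteadyGlo luminescence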
Sequence of Paired box protein Pax-8 (Q06710 whole entry): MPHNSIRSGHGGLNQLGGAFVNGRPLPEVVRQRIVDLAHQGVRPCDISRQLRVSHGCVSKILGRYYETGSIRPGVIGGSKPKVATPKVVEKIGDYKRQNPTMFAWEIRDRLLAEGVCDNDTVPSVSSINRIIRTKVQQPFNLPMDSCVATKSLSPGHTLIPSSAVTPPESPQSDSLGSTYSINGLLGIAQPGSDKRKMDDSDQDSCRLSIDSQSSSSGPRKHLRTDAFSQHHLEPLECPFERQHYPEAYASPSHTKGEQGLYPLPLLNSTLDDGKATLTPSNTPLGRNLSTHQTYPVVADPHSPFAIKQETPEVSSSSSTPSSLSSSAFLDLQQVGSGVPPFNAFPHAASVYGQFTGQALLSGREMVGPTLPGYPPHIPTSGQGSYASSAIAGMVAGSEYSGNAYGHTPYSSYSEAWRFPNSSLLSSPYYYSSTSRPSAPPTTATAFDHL

[15] = target: T5, Sentrin-specific protease 8; format: functional; remark: listed apart in the source
[16] = target: T5, Sentrin-specific protease 8; format: functional; remark: listed apart in the source
[17] = target: T7, DNA repair protein RAD52 homolog (Homo sapiens, UniProt P43351); format: functional, biochemical
T7 sequence (P43351 whole entry): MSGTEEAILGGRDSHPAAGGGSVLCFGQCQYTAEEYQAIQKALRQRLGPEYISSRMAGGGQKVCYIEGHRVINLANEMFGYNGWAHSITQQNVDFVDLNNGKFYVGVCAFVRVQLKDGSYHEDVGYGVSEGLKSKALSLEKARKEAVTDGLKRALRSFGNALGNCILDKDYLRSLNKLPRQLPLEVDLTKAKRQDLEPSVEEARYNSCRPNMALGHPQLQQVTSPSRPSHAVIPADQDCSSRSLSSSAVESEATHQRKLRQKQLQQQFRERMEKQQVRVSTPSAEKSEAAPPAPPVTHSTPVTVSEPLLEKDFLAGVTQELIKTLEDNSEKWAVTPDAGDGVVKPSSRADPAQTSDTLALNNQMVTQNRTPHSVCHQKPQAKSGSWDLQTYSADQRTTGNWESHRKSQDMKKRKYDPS

## Cc1cc(C)c2nc(-c3ccccn3)cc(C(=O)NCc3ccco3)c2c1
Estrogen receptor
  IC50: > 50 µM (not active)
Vero [1]
  CC50: > 40 µM (active)

## Cc1nn(-c2cccc(Cl)c2)c2nc(-c3ccco3)cc(C(=O)O)c12
Vero [1]
  CC50: > 40 µM (active)
Genome polyprotein
  IC50: > 100 µM (active)

## COc1cc2c(C(=O)N3CCN(c4cccc(Cl)c4)CC3)cn(C)c(=O)c2cc1OC
[2]
  IC50: 20.5 µM (inactive)

## Clc1ncc(CN2CCN(c3ccccc3)CC2)s1
Mu-type opioid receptor
  EC50: 92.5 µM (inactive)
[3]
  EC50: 0.815 µM (active)

## CCSc1nsc(NC(=O)Nc2ccc(F)cc2F)n1
[4]
  CC50: 28.3 µM (active)
[5]
  CC50: > 20 µM (active)
Caspase-3
  IC50: 39.5 µM (active)
[6]
  IC50: 13.7 µM (active)
[7]
  IC50: > 100 µM (inactive)
[8]
  IC50: > 100 µM (inactive)

## O=[N+]([O-])c1cc2no[n+]([O-])c2cc1N1CCCCC1
Nonstructural protein 1
  IC50: 31.7 µM (active)
[9]
  AC50: 1.62 µM (active)
Vero [1]
  CC50: 27.6 µM (active)
Vero [10]
  CC50: 24.7 µM (active)
Genome polyprotein
  IC50: 6.38 µM (active)
Protein Tat
  IC50: > 100 µM (active)
[11]
  CC50: 36.9 µM (active)

## COc1cccc(C(c2nnnn2-c2ccc3c(c2)OCCO3)N2CCC(n3c(O)nc4ccccc43)CC2)c1OC (stereo unspecified)
[2]
  IC50: > 73.4 µM (inactive)
[12]
  AC50: 3.74 µM (active)
[13]
  AC50: > 70 µM (inactive)
[14]
  AC50: 5.67 µM (active)
Paired box protein Pax-8
  AC50: 1.52 µM (active)

## Cc1cc(C)cc(/N=C/c2ccc([N+](=O)[O-])s2)c1
[9]
  AC50: 4.15 µM (active)
[15]
  IC50: 2.56 µM (active)
[16]
  IC50: 14.1 µM (active)

## C=CCN1CCc2nc(N)sc2CC1 [TALIPEXOLE HYDROCHLORIDE]
Mu-type opioid receptor
  EC50: 92.6 µM (inactive)
[3]
  EC50: 0.0137 µM (active)
[17]
  AC50: 6.04 µM (active)
